In ChEMBL document CHEMBL4342418, “1,2,3-Triazole-containing hybrids as potential anticancer agents: Current developments, action mechanisms and structure-activity relationships” (Eur J Med Chem, 2019):
Converted amounts (≈) assume the structure as drawn. Blank lines part the entries; values can stand above or below the compound they belong to.

What was measured:
A549 [1] = assay: Antiproliferative activity against human A549 cells; format: functional, cell-based
HeLa [2] = assay: Antiproliferative activity against human HeLa cells; format: functional, cell-based
HepG2 [3] = assay: Antiproliferative activity against human HepG2 cells; format: functional, cell-based
A549 [4] = assay: Antitumour activity against human A549 cells xenografted in Kunming mice assessed as tumour growth inhibition at 5 mg/kg, iv bid administered and measured after week relative to control; format: functional; settings: Mus musculus, read-out: TGI
A549 [5] = assay: Antitumour activity against human A549 cells xenografted in Kunming mice assessed as tumour growth inhibition at 20 mg/kg, iv bid administered and measured after week relative to control; format: functional; settings: Mus musculus, read-out: TGI
A549 [6] = assay: Antitumour activity against human A549 cells xenografted in Kunming mice assessed as tumour growth inhibition at 10 mg/kg, iv bid administered and measured after week hrs relative to control; format: functional; settings: Mus musculus, read-out: TGI
HepG2 [7] = assay: Antiproliferative activity against human HepG2 cells assessed as reduction in cell viability after 72 hrs by MTT assay; format: functional, cell-based; settings: HepG2, 72 h
A549/TR = assay: Antiproliferative activity against human A549/TR cells assessed as reduction in cell viability after 72 hrs by MTT assay; format: functional, cell-based
A549 [8] = assay: Antitumour activity against human A549 cells xenografted in Kunming mice assessed as tumour growth inhibition at 50 mg/kg, po administered and measured after week relative to control; format: functional; settings: Mus musculus, read-out: TGI
HCT-116 = assay: Antiproliferative activity against human HCT116 cells assessed as reduction in cell viability after 72 hrs by MTT assay; format: functional, cell-based; settings: HCT-116, 72 h
U-251 = assay: Antiproliferative activity against human U251 cells assessed as reduction in cell viability after 72 hrs by MTT assay; format: functional, cell-based; settings: U-251, 72 h
A549/CDDP = assay: Antiproliferative activity against human A549/CDDP cells assessed as reduction in cell viability after 72 hrs by MTT assay; format: functional, cell-based
A549 [9] = assay: Antiproliferative activity against human A549 cells assessed as reduction in cell viability after 72 hrs by MTT assay; format: functional, cell-based; settings: A549, 72 h
MDA-MB-231 [10] = assay: cells; settings: Homo sapiens, MDA-MB-231, 96 h
Description: Antiproliferative activity against human MDA-MB-231 cells assessed as reduction in cell viability incubated for 96 hrs under normaxic condition by MTT assay

MDA-MB-231 [11] = assay: cells; settings: Homo sapiens
Description: Antiproliferative activity against human MDA-MB-231 cells assessed as reduction in cell viability preincubated for 24 hrs under hypoxia condition further incubated for 72 hrs under normaxic condition by MTT assay

SK-N-SH [12] = assay: Potency index, ratio of 5-Fluorouracil IC50 to test compound IC50 for antiproliferative activity against human SK-N-SH cells by MTT assay; format: functional
HepG2 [13] = assay: Antiproliferative activity against human HepG2 cells by MTT assay; format: functional, cell-based
MGC-803 [14] = assay: Antiproliferative activity against human MGC803 cells by MTT assay; format: functional, cell-based
SK-N-SH [15] = assay: Antiproliferative activity against human SK-N-SH cells by MTT assay; format: functional, cell-based
MGC-803 [16] = assay: Potency index, ratio of 5-Fluorouracil IC50 to test compound IC50 for antiproliferative activity against human MGC803 cells by MTT assay; format: functional
HepG2 [17] = assay: Potency index, ratio of 5-Fluorouracil IC50 to test compound IC50 for antiproliferative activity against human HepG2 cells by MTT assay; format: functional
NCI-H23 = assay: cells; format: functional, cell-based; settings: Homo sapiens, NCI-H23, 48 h
Description: Antiproliferative activity against human NCI-H23 cells assessed as reduction in cell viability after 48 hrs by MTT assay

SW-620 = assay: cells; format: functional, cell-based; settings: Homo sapiens, SW-620, 48 h
Description: Antiproliferative activity against human SW620 cells assessed as reduction in cell viability after 48 hrs by MTT assay

PC-3 = assay: cells; format: functional, cell-based; settings: Homo sapiens, PC-3, 48 h
Description: Antiproliferative activity against human PC3 cells assessed as reduction in cell viability after 48 hrs by MTT assay

ASPC1 = assay: cells; format: functional, cell-based; settings: Homo sapiens, ASPC1, 48 h
Description: Antiproliferative activity against human Aspc-1 cells assessed as reduction in cell viability after 48 hrs by MTT assay

Ca-Ski = assay: Antiproliferative activity against human CaSki cells by MTT assay; format: functional, cell-based
NCI-H460 = assay: Antiproliferative activity against human H460 cells by MTT assay; format: functional, cell-based
NCI-H1299 = assay: Antiproliferative activity against human H1299 cells by MTT assay; format: functional, cell-based
HepG2 [18] = assay: Antiproliferative activity against human HepG2 cells assessed as reduction in cell viability after 24 hrs by MTT assay; format: functional, cell-based; settings: HepG2, 24 h
HeLa [19] = assay: Antiproliferative activity against human HeLa cells assessed as reduction in cell viability after 24 hrs by MTT assay; format: functional, cell-based
SK-BR-3 = assay: Antiproliferative activity against human SKBR3 cells assessed as reduction in cell viability after 24 hrs by MTT assay; format: functional, cell-based; settings: SK-BR-3, 24 h

SMILES: COc1cccc(Cn2cc(CNc3ccc(C(=O)/C=C/c4cccnc4)cc3)nn2)c1
Ratio IC50 (SK-N-SH [12]): 2.6 - 6.7
IC50 (HepG2 [13]): 1530 to 2730 nM
IC50 (MGC-803 [14]): 1530 to 2730 nM
IC50 (SK-N-SH [15]): 1530 to 2730 nM
Ratio IC50 (MGC-803 [16]): 2.6 - 6.7
Ratio IC50 (HepG2 [17]): 2.6 - 6.7

SMILES: CO[C@H]1C[C@@H]2CC[C@@H](C)[C@@](O)(O2)C(=O)C(=O)N2CCCC[C@H]2C(=O)O[C@H]([C@H](C)C[C@@H]2CC[C@@H](OCCCn3cc(CNc4ccc(Cl)cc4Cl)nn3)[C@H](OC)C2)CC(=O)[C@H](C)/C=C(\C)[C@@H](O)[C@@H](OC)C(=O)[C@H](C)C[C@H](C)/C=C/C=C/C=C/1C
IC50 (Ca-Ski): 6050 to 25900 nM
IC50 (MGC-803 [14]): 6050 to 25900 nM
IC50 (NCI-H460): 6050 to 25900 nM
IC50 (NCI-H1299): 6050 to 25900 nM

SMILES: COc1ccc(-c2nnn(Cc3cc(F)ccc3F)c2-c2nc3cc(C)ccc3o2)cc1
IC50 (HepG2 [18]): 11.2 µg/mL (≈ 25.9 µM)
IC50 (HeLa [19]): 6.8 µg/mL (≈ 15.7 µM)
IC50 (SK-BR-3): 7.1 µg/mL (≈ 16.4 µM)

The next lines start with results.

IC50 (A549 [1]): 8730 to 9160 nM
IC50 (HeLa [2]): 8730 to 9160 nM
IC50 (HepG2 [3]): 8730 to 9160 nM
SMILES: CCCCCCc1ccc(-c2cn(Cc3cc(=O)oc4cc(O)ccc34)nn2)cc1

IC50 (HepG2 [7]): 310 to 3750 nM
IC50 (A549/TR): 310 to 3750 nM
IC50 (HCT-116): 310 to 3750 nM
IC50 (U-251): 310 to 3750 nM
IC50 (A549/CDDP): 310 to 3750 nM
IC50 (A549 [9]): 310 to 3750 nM
SMILES: CC(C)=CCC12OC(C)(C)C3CC(C=C4C(=O)c5c(OCc6cn(CCN7CCOCC7)nn6)cccc5OC431)C2=O (configuration not stated)
inhibition in vivo at 5 mg/kg (A549 [4]): 30.9%
inhibition in vivo at 20 mg/kg (A549 [5]): 71.3%
inhibition in vivo at 10 mg/kg (A549 [6]): 52.2%
inhibition in vivo at 50 mg/kg (A549 [8]): 66.4%

IC50 (MDA-MB-231 [10]): 1340 nM
IC50 (MDA-MB-231 [11]): 30 nM
SMILES: COc1ccc(NC(=O)c2ccc(-n3cc(COc4cc(=O)oc5ccccc45)nn3)cc2)cc1OC

IC50 (NCI-H23): 1400 to 2620 nM
IC50 (SW-620): 1400 to 2620 nM
IC50 (PC-3): 1400 to 2620 nM
IC50 (ASPC1): 1400 to 2620 nM
SMILES: COc1ccc2c(c1)/C(=N\O)C(=O)N2Cc1cn(Cc2ccc(C(=O)NO)cc2)nn1
